Data published in patent US20090018134A1, “Compounds - 945” (AstraZeneca AB, priority 2007, published 2009).

target: T1, mTOR (Homo sapiens, UniProt P42345); test: In Vitro mTOR Kinase Assay (Echo), Test (a)(ii); type: biochemical; conditions: table of enzyme assay Test (a)(ii); read-out: Test (a)(ii) IC50
T1 construct: FLAG; made in house
In short: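 Inhibition of truncated mTOR (1362-2549, FLAG-tagged, purified from stably transfected HEK293 cells) is measured as reduced AlphaScreen signal from a phospho-T389-recognising antibody bound to the biotinylated peptide product. Kinase incubation lasts 2 hours at room temperature. Potency is given as IC50.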

T1 sequence (P42345 1362-2549): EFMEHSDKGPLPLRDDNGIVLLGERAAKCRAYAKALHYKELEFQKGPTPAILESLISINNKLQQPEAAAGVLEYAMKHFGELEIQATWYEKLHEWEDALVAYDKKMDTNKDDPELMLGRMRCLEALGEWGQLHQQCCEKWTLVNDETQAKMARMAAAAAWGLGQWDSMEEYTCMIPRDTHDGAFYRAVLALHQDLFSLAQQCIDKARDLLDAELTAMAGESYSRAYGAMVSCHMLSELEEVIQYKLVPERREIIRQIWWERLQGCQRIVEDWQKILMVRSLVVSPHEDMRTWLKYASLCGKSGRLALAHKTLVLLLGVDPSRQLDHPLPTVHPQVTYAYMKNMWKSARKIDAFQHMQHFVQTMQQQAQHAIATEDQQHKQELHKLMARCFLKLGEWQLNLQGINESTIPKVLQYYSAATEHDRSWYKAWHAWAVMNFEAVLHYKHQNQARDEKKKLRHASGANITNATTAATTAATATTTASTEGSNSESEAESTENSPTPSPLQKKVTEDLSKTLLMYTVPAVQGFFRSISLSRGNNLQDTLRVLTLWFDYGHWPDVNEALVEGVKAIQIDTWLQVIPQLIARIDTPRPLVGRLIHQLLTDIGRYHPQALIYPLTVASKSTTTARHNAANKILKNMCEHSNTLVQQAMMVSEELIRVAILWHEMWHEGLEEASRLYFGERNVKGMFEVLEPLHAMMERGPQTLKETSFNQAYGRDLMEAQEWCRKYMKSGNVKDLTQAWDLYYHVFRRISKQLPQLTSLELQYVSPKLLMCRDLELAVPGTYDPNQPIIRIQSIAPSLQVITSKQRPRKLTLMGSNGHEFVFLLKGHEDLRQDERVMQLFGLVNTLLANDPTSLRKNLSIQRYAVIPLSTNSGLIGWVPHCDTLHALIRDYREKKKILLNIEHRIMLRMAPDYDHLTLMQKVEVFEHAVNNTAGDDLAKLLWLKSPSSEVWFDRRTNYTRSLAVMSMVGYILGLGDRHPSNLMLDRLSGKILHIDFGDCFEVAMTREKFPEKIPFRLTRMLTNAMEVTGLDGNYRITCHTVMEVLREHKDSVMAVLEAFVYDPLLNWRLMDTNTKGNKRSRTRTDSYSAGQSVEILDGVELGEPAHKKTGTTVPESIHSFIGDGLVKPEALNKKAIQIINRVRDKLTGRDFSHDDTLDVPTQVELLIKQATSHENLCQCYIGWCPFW

| Structure (SMILES) | IC50 [nM] |
| --- | --- |
| C[C@H]1COCCN1c1cc(C2(S(=O)(=O)c3ccccn3)CC2)nc(-c2ccc(NC(=O)Nc3ccon3)cc2)n1 [Example 64ag, 1-[4-[4-[(3S)-3-methylmorpholin-4-yl]-6-(1-pyridin-2-ylsulfonylcyclopropyl)pyrimidin-2-yl]phenyl]-3-(1,2-oxazol-3-yl)urea] | 2.81 |
| C[C@H]1COCCN1c1cc(C2(S(=O)(=O)c3ccc(Cl)cc3)CC2)nc(-c2ccc(NC(=O)NCC(F)F)cc2)n1 [Example 64ah, 1-[4-[4-[1-(4-chlorophenyl)sulfonylcyclopropyl]-6-[(3S)-3-methylmorpholin-4-yl]pyrimidin-2-yl]phenyl]-3-(2,2-difluoroethyl)urea] | 6.84 |
| C[C@H]1COCCN1c1cc(C2(S(=O)(=O)c3ccc(Cl)cc3)CC2)nc(-c2ccc(NC(=O)Nc3ccon3)cc2)n1 [Example 64ai, 1-[4-[4-[1-(4-chlorophenyl)sulfonylcyclopropyl]-6-[(3S)-3-methylmorpholin-4-yl]pyrimidin-2-yl]phenyl]-3-(1,2-oxazol-3-yl)urea] | 5.67 |
| C[C@H]1COCCN1c1cc(C2(S(=O)(=O)CCCO)CC2)nc(-c2ccc(NC(=O)NCCF)cc2)n1 [Example 64aj, 3-(2-fluoroethyl)-1-[4-[4-[1-(3-hydroxypropylsulfonyl)cyclopro-pyl]-6-[(3S)-3-methylmorpholin-4-yl]pyrimidin-2-yl]phenyl]urea] | 7.78 |
| C[C@H]1COCCN1c1cc(C2(S(=O)(=O)CCCO)CC2)nc(-c2ccc(NC(=O)Nc3ccon3)cc2)n1 [Example 64ak, 1-[4-[4-[1-(3-hydroxypropylsulfonyl)cyclopro-pyl]-6-[(3S)-3-methylmorpholin-4-yl]pyrimidin-2-yl]phenyl]-3-(1,2-oxazol-3-yl)urea] | 1.61 |
| C[C@H]1COCCN1c1cc(C2(S(=O)(=O)c3cnn(C(F)F)c3)CC2)nc(-c2ccc(NC(=O)NCCO)cc2)n1 [Example 64al, 1-[4-[4-[1-[1-(difluoromethyl)pyrazol-4-yl]sulfonylcyclopropyl]-6-[(3S)-3-methylmorpholin-4-yl]pyrimidin-2-yl]phenyl]-3-(2-hydroxyethyl)urea] | 5.58 |
| CCNC(=O)Nc1ccc(-c2nc(N3CCOC[C@@H]3C)cc(C3(S(=O)(=O)c4ccc(OC(F)F)cc4)CC3)n2)cc1 [Example 64b, 3-[4-[4-[1-[4-(difluoromethoxy)phenyl]sulfonyl-cyclopropyl]-6-[(3S)-3-methylmorpholin-4-yl]pyrimidin-2-yl]phenyl]-1-ethylurea] | 6.78 |
| C[C@H]1COCCN1c1cc(C2(S(=O)(=O)c3ccc(OC(F)F)cc3)CC2)nc(-c2ccc(NC(=O)NCCO)cc2)n1 [Example 64c, 1-[4-[4-[1-[4-(difluoromethoxy)phenyl]sulfonyl-cyclopropyl]-6-[(3S)-3-methylmorpholin-4-yl]pyrimidin-2-yl]phenyl]-3-(2-hydroxyethyl)urea] | 2.15 |
| C[C@H]1COCCN1c1cc(C2(S(=O)(=O)c3ccc(OC(F)F)cc3)CC2)nc(-c2ccc(NC(=O)Nc3cnn(C)c3)cc2)n1 [Example 64d, 1-[4-[4-[1-[4-(difluoromethoxy)phenyl]sulfonyl-cyclopropyl]-6-[(3S)-3-methylmorpholin-4-yl]pyrimidin-2-yl]phenyl]-3-(1-methylpyrazol-4-yl)urea] | 6.7 |
| C[C@H]1COCCN1c1cc(C2(S(=O)(=O)c3ccc(OC(F)F)cc3)CC2)nc(-c2ccc(NC(=O)NCCF)cc2)n1 [Example 64e, 1-[4-[4-[1-[4-(difluoromethoxy)phenyl]sulfonyl-cyclopropyl]-6-[(3S)-3-methylmorpholin-4-yl]pyrimidin-2-yl]phenyl]-3-(2-fluoroethyl)urea] | 5.37 |
| C[C@H]1COCCN1c1cc(C2(S(=O)(=O)c3ccc(OC(F)F)cc3)CC2)nc(-c2ccc(NC(=O)NCC(F)F)cc2)n1 [Example 64f, 3-(2,2-difluoroethyl)-1-[4-[4-[1-[4-(difluoromethoxy)phenyl]sulfonyl-cyclopropyl]-6-[(3S)-3-methylmorpholin-4-yl]pyrimidin-2-yl]phenyl]urea] | 5.21 |
| CNC(=O)Nc1ccc(-c2nc(N3CCOC[C@@H]3C)cc(C3(S(=O)(=O)c4ccc(F)c(F)c4)CC3)n2)cc1 [Example 64g, 1-[4-[4-[1-(3,4-difluorophenyl)sulfonylcyclopro-pyl]-6-[(3S)-3-methylmorpholin-4-yl]pyrimidin-2-yl]phenyl]-3-methylurea] | 34.2 |
| CCNC(=O)Nc1ccc(-c2nc(N3CCOC[C@@H]3C)cc(C3(S(=O)(=O)c4ccc(F)c(F)c4)CC3)n2)cc1 [Example 64h, 3-[4-[4-[1-(3,4-difluorophenyl)sulfonylcyclopro-pyl]-6-[(3S)-3-methylmorpholin-4-yl]pyrimidin-2-yl]phenyl]-1-ethylurea] | 1.48 |
| C[C@H]1COCCN1c1cc(C2(S(=O)(=O)c3ccc(F)c(F)c3)CC2)nc(-c2ccc(NC(=O)NC3CC3)cc2)n1 [Example 64i, 3-cyclopropyl-1-[4-[4-[1-(3,4-difluorophenyl)sulfonylcyclopro-pyl]-6-[(3S)-3-methylmorpholin-4-yl]pyrimidin-2-yl]phenyl]urea] | 1.35 |
| C[C@H]1COCCN1c1cc(C2(S(=O)(=O)c3ccc(F)c(F)c3)CC2)nc(-c2ccc(NC(=O)NCCO)cc2)n1 [Example 64j, 1-[4-[4-[1-(3,4-difluorophenyl)sulfonylcyclopro-pyl]-6-[(3S)-3-methylmorpholin-4-yl]pyrimidin-2-yl]phenyl]-3-(2-hydroxyethyl)urea] | 1.2 |
| C[C@H]1COCCN1c1cc(C2(S(=O)(=O)c3ccc(F)c(F)c3)CC2)nc(-c2ccc(NC(=O)Nc3cnn(C)c3)cc2)n1 [Example 64k, 1-[4-[4-[1-(3,4-difluorophenyl)sulfonylcyclopro-pyl]-6-[(3S)-3-methylmorpholin-4-yl]pyrimidin-2-yl]phenyl]-3-(1-methylpyrazol-4-yl)urea] | 1.44 |
| C[C@H]1COCCN1c1cc(C2(S(=O)(=O)c3ccc(F)c(F)c3)CC2)nc(-c2ccc(NC(=O)NCCF)cc2)n1 [Example 64l, 1-[4-[4-[1-(3,4-difluorophenyl)sulfonylcyclopro-pyl]-6-[(3S)-3-methylmorpholin-4-yl]pyrimidin-2-yl]phenyl]-3-(2-fluoroethyl)urea] | 1.11 |
| C[C@H]1COCCN1c1cc(C2(S(=O)(=O)c3ccc(F)c(F)c3)CC2)nc(-c2ccc(NC(=O)NCC(F)F)cc2)n1 [Example 64m, 3-(2,2-difluoroethyl)-1-[4-[4-[1-(3,4-difluorophenyl)sulfonylcyclo-propyl]-6-[(3S)-3-methylmorpholin-4-yl]pyrimidin-2-yl]phenyl]urea] | 40.8 |
| C[C@H]1COCCN1c1cc(C2(S(=O)(=O)c3ccc(NCCO)c(F)c3)CC2)nc(-c2ccc(NC(=O)NCCO)cc2)n1 [Example 64n, 1-[4-[4-[1-[3-fluoro-4-(2-hydroxyethylamino)phenyl]sulfon-ylcyclopropyl]-6-[(3S)-3-methylmorpholin-4-yl]pyrimidin-2-yl]phenyl]-3-(2-hydroxyethyl)urea] | 16.1 |
| C[C@H]1COCCN1c1cc(C2(S(=O)(=O)c3ccccc3)CCC2)nc(-c2ccc(NC(=O)NC(C)(C)CO)cc2)n1 [Example 64o, 1-[4-[4-[1-(benzenesulfonyl)cyclobutyl]-6-[(3S)-3-methylmorpholin-4-yl]pyrimidin-2-yl]phenyl]-3-(1-hydroxy-2-methylpropan-2-yl)urea] | 3.45 |
| C[C@@H](CO)NC(=O)Nc1ccc(-c2nc(N3CCOC[C@@H]3C)cc(C3(S(=O)(=O)c4ccccc4)CCC3)n2)cc1 [Example 64p, 1-[4-[4-[1-(benzenesulfonyl)cyclobutyl]-6-[(3S)-3-methylmorpholin-4-yl]pyrimidin-2-yl]phenyl]-3-[(2S)-1-hydroxypropan-2-yl]urea] | 3.98 |
| C[C@H](CO)NC(=O)Nc1ccc(-c2nc(N3CCOC[C@@H]3C)cc(C3(S(=O)(=O)c4ccccc4)CCC3)n2)cc1 [Example 64q, 1-[4-[4-[1-(benzenesulfonyl)cyclobutyl]-6-[(3S)-3-methylmorpholin-4-yl]pyrimidin-2-yl]phenyl]-3-[(2R)-1-hydroxypropan-2-yl]urea] | 4.67 |
| C[C@H]1COCCN1c1cc(C2(S(=O)(=O)c3ccccc3)CCC2)nc(-c2ccc(NC(=O)NCCCO)cc2)n1 [Example 64r, 1-[4-[4-[1-(benzenesulfonyl)cyclobutyl]-6-[(3S)-3-methylmorpholin-4-yl]pyrimidin-2-yl]phenyl]-3-(3-hydroxypropyl)urea] | 4.18 |
| C[C@H]1COCCN1c1cc(C2(S(=O)(=O)c3ccccc3)CCC2)nc(-c2ccc(NC(=O)NCCF)cc2)n1 [Example 64s, 1-[4-[4-[1-(benzenesulfonyl)cyclobutyl]-6-[(3S)-3-methylmorpholin-4-yl]pyrimidin-2-yl]phenyl]-3-(2-fluoroethyl)urea] | 2.96 |
| C[C@H]1COCCN1c1cc(C2(S(=O)(=O)C3CC3)CC2)nc(-c2ccc(NC(=O)NCCF)cc2)n1 [Example 64t, 1-[4-[4-(1-cyclopropylsulfonylcyclopropyl)-6-[(3S)-3-methylmorpholin-4-yl]pyrimidin-2-yl]phenyl]-3-(2-fluoroethyl)urea] | 11.4 |
| C[C@H]1COCCN1c1cc(C2(S(=O)(=O)C3CC3)CC2)nc(-c2ccc(NC(=O)NCC(F)F)cc2)n1 [Example 64u, 1-[4-[4-(1-cyclopropylsulfonylcyclopropyl)-6-[(3S)-3-methylmorpholin-4-yl]pyrimidin-2-yl]phenyl]-3-(2,2-difluoroethyl)urea] | 13.9 |
| C[C@H]1COCCN1c1cc(C2(S(=O)(=O)C3CC3)CC2)nc(-c2ccc(NC(=O)NCc3ncc[nH]3)cc2)n1 [Example 64v, 1-[4-[4-(1-cyclopropylsulfonylcyclopropyl)-6-[(3S)-3-methylmorpholin-4-yl]pyrimidin-2-yl]phenyl]-3-(1H-imidazol-2-ylmethyl)urea] | 146 |
| C[C@H]1COCCN1c1cc(C2(S(=O)(=O)C3CC3)CCC2)nc(-c2ccc(NC(=O)NC(C)(C)CO)cc2)n1 [Example 64w, 1-[4-[4-(1-cyclopropylsulfonylcyclobutyl)-6-[(3S)-3-methylmorpholin-4-yl]pyrimidin-2-yl]phenyl]-3-(1-hydroxy-2-methylpropan-2-yl)urea] | 16.1 |
